Assays:
A. viscosus OMZ 105 [1] = system: A. viscosus OMZ 105
A. naeslundii ATCC 12104 = conditions: A. naeslundii ATCC 12104, no control of growth phase; desialylated human erythrocytes (A+); none = no inhibition up to 20 mg/ml
A. viscosus OMZ 105 [2] = conditions: for Inhibition (%) of bacterial adhesion to plastic tubes: 1 mg/ml, 4 h; for Inhibitory effect on adhesion to plastic tubes (in words): preliminary tests
S. mutans OMZ 176 = assay: Inhibition of bacterial adhesion to plastic (polypropylene) tubes; conditions: 1 mg/ml, 4 h
S. sanguis OMZ 9 = conditions: for Inhibition (%) of bacterial adhesion to plastic tubes: 1 mg/ml, 4 h; for Inhibitory effect on adhesion to plastic tubes (in words): preliminary tests

With `OC[C@H]1O[C@@H](O[C@H]2[C@H](O)[C@@H](O)C(O)O[C@@H]2CO)[C@H](O)[C@@H](O)[C@H]1O` (some centres unmarked) [Lactose] the “Minimum concentration resulting in complete inhibition of hemagglutination” value (A. viscosus OMZ 105 [1]; A. viscosus OMZ 105, no control of growth phase, desialylated human erythrocytes (A+), none = no inhibition up to 20 mg/ml) was “none”, the “Concentration expressed in galactoside equivalents/ml (minimum concentration resulting in complete inhibition of hemagglutination)” value (A. viscosus OMZ 105 [1]; A. viscosus OMZ harvested in the exponential phase) was over 10 mg/mL and the “Concentration expressed in dry weight/ml (minimum concentration resulting in complete inhibition of hemagglutination)” value (A. viscosus OMZ 105 [1]; A. viscosus OMZ harvested in the exponential phase, none = no inhibition up to 20 mg/ml) was “none”. The “Minimum concentration resulting in complete inhibition of hemagglutination” value (A. naeslundii ATCC 12104) was “none”.

In the case of `COC1OC(CO)C(O)C(O)C1O` (stereo not drawn) [Methyl α annoside], the “Inhibition (%) of bacterial adhesion to plastic tubes” value (shortened to “Inhibition (%) of bacterial adhesion”) (A. viscosus OMZ 105 [2]) is reported as 10%, the “Inhibition (%) of bacterial adhesion” value (S. mutans OMZ 176) is reported as 3% and the “Inhibition (%) of bacterial adhesion” value (S. sanguis OMZ 9) is reported as 11%.

For `O=C[C@H](O)[C@@H](O)[C@H](O)[C@H](O)CO` [glucose], the “Inhibitory effect on adhesion to plastic tubes (in words)” value (“Inhibitory effect on adhesion” below) (A. viscosus OMZ 105 [2]) was “nonactivity” and the “Inhibitory effect on adhesion” value (S. sanguis OMZ 9) was “nonactivity”.

With `NCC(=O)O` [glycine] the “Inhibitory effect on adhesion” value (A. viscosus OMZ 105 [2]) was “nonactivity” and the “Inhibitory effect on adhesion” value (S. sanguis OMZ 9) was “nonactivity”.

Polyglutamic acid was tested, and the “Inhibition (%) of bacterial adhesion” value (A. viscosus OMZ 105 [2]) was 22%, the “Inhibition (%) of bacterial adhesion” value (S. mutans OMZ 176) was 20% and the “Inhibition (%) of bacterial adhesion” value (S. sanguis OMZ 9) was 6%.

With Polylysine the “Inhibition (%) of bacterial adhesion” value (A. viscosus OMZ 105 [2]) was 46%, the “Inhibition (%) of bacterial adhesion” value (S. mutans OMZ 176) was 30% and the “Inhibition (%) of bacterial adhesion” value (S. sanguis OMZ 9) was 12%.

From patent US4994441A, “Dental anti-plaque and anti-caries agent” (priority 1987, dated 1991)
